Measured values taken from patent US20180057538A1, “POTENT AND HIGHLY SOLUBLE PEGYLATED COMPSTATIN PEPTIDES” (The Regents of the University of California, priority 2016, published 2018).
Read-outs that look alike come from different tables or passages of the source. Positions of bridges follow the written chain, without caps; N, C: chain ends. Primed or numbered codes have the meaning given here. PEG8′ = 8 PEG blocks attached at the backbone of the C-terminal amino acid

Legend:
[1] = tested on: NHS-induced basal C5b-9n deposition by RPE cells; assay: Human RPE cell-based assay, anti-C5b-9n immunofluorescence of sub-RPE deposits; settings: for reduction in NHS-induced basal C5b-9n deposition: 2 μM peptide, 10% NHS, 24 h, decellularized whole mounts, normalized to NHS-treated samples
Experimental: The in vitro model of drusen biogenesis was used according to Johnson et al. (Proceedings of the National Academy of Sciences of the United States of America 2011; 108(45):18277-82) and used in assessing the efficacy of compstatin peptides. Briefly, human fetal RPE cells within the second passage were grown on laminin-coated porous inserts (Millipore, Billerica, Mass., USA) in Miller medium supplemented with 5% fetal bovine serum (FBS, HyClone, Logan, Utah, USA) at 37° C. and 5% CO2 in a humidified incubator. After culturing for 2-3 months, cells were rinsed with PBS and treated with Miller medium containing either 5% FBS (negative control) or 10% NHS without or with the inhibitory peptides (2 μM). The choice of 2 μM dose for this assay was based on the intent to use double the IC50 concentration, which was determined to be ˜1 μM. All inhibitory peptides were pre-mixed with NHS on a rocker at room temperature for 30 min and then warmed to 37° C. prior to addition to RPE cell cultures for 24 h. […]
Immunolabeled RPE sections and decellularized culture inserts were imaged using a Leica SP5 confocal microscope. Single-plane images from multiple non-overlapping areas were acquired using a 63× objective, and C5b-9n (MAC) immunofluorescence signals were quantified using ImageJ (NIH), as described Gorham et al. (Experimental Eye Research 2013; 116:96-108). Briefly, the thresholding tool of ImageJ was used to analyze each color channel separately, with the upper threshold set to include C5b-9n-associated fluorescence and the lower threshold set to eliminate any background fluorescence. For statistical analysis, fluorescence intensity measurements of C5b-9n were averaged with respect to the number of RPE nuclei per image (for vibratome sections) or total image area (for decellularized whole-mount samples) and then expressed as a percentage of the corresponding fluorescence intensities from samples exposed to NHS in the absence of any inhibitory peptide (positive control). All data were obtained from multiple images (n≧9) and expressed as mean±SEM. […]

[2] = tested on: complement activation; assay: Hemolytic assay (rabbit erythrocytes lysed by normal human serum in VBS-MgEGTA); assay type: cell-based; settings: ligand concentration at 50% maximal inhibition, triplicate runs (N = 3)
Experimental: Rabbit erythrocytes (Complement Technology, Inc, Tyler, Tex., USA) were washed with PBS and then resuspended in a veronal-buffered saline solution containing 5 mM MgCl2 and 10 mM EGTA (VBS-MgEGTA). Two-fold serial dilutions of the compstatin analogs were performed in round-bottom 96-well plates and then further diluted in VBS-MgEGTA. Normal human serum (NHS; Complement Technology, Inc) diluted in VBS-MgEGTA was added to each well followed by incubation at ambient temperature for 15 minutes. Subsequently, 30 μL of rabbit erythrocytes at a concentration of 1.25×10^8 cells/mL were added to each well. Positive controls for lysis consisted of: (1) erythrocytes in deionized water and (2) erythrocytes in NHS diluted with VBS-MgEGTA. Negative controls for lysis consisted of: (1) erythrocytes in VBS-MgEGTA and (2) erythrocytes in NHS diluted in VBS-EDTA. Next, plates were incubated at 37° C. for 20 minutes and then ice cold VBS containing 50 mM EDTA was added to each well to quench hemolytic reactions. Plates were centrifuged at 1000×g for 5 minutes and the supernatant was diluted 1:1 with deionized water in flat-bottom 96-well plates. Absorbance was measured spectrophotometrically at 405 nm to quantify lysis.

[3] = Apparent solubility measurements in PBS pH 7.4; assay type: physicochemical; settings: PBS pH 7.4, 5-10 mg/mL
Experimental: Compstatin analogs were dissolved in phosphate buffered saline (PBS) at pH 7.4 to concentrations of 10, 7.5, and 5 mg/mL. At each concentration point, the peptide solutions were vortexed for 30 seconds and then centrifuged at 13000×g for 5 minutes. The supernatant was collected and measured 5 times spectrophotometrically at 280 nm. Optical densities were converted into concentration according to Beer-Lambert law. An extinction coefficient of 11125 M^−1 cm^−1 was used for each compstatin analog since each peptide contains two tryptophan amino acids (tryptophan extinction coefficient being 5562.5 M^−1 cm^−1).

[4] = tested on: complement activation; settings: alternative pathway-mediated erythrocyte lysis assay; cited from earlier work
[5] = target: complement C3 in normal human serum (human, UniProt P01024 23-1663); assay: cell-based or functional assay
[6] = target: T1, purified C3c (Complement Technology) (UniProt P01024 23-667; P01024 749-954; P01024 1321-1663, limits assumed); assay: competitive microscale thermophoresis (Monolith NT.115); Peptide 2 titrated against Cy5-labeled Competition Peptide on purified C3c
T1 construct: domain: C3c; C3c is a multi-chain proteolytic fragment of C3; also called complement protein C3c
Experimental: (§1) The binding affinity of Peptide 2 was evaluated in a competitive microscale thermophoresis assay, using a Monolith NT.115 instrument (NanoTemper Technologies GmbH, Munich, Germany). Competition was performed against the Competition Peptide, labeled with Cy5 for signal detection. Two different 1:1 serial dilution series of Peptide 2 were performed in MST buffer (50 mM Tris-HCl, 150 mM NaCl, 10 mM MgCl₂, 0.05% Tween 20). The first dilution series started with a final concentration of 333 μM and ended in a final concentration of 40.69 nM, while the second dilution series started with a final concentration of 166.67 μM and ended in a final concentration of 20.35 nM. To each dilution series of Peptide 2, purified C3c (Complement Technology) and the Competition Peptide (unlabeled form) were dissolved to final concentrations of 117 nM (Peptide 2) and 50 nM (Competition Peptide). The resulting mixture was incubated for 15 minutes in the dark at room temperature. Following the incubation, the samples were loaded into hydrophilic capillary tubes and the thermophoretic response of the fluorescently labeled marker was measured. […]
(§2) The binding affinity of Peptide 2 to C3c was determined using the microscale thermophoresis assay described herein. […]

[7] = target: T1, purified C3c (Complement Technology); assay: competitive microscale thermophoresis: Peptide 2 titrated against C3c in the presence of the Cy5-labeled Competition Peptide, mean±SEM of 7 replicates
Experimental: The labeled form of the Competition Peptide was used. Thermophoretic data is plotted as mean±SEM from 7 replicate experiments, together with the fitted binding curve. The dotted lines in red indicate the 95% confidence interval of the fitted binding curve. The black dotted line represents the baseline thermophoretic response in the absence of binding. The inset table indicates the KD±SEM.
as §1, with “To each dilution series of Peptide 2, purified C3c (Complement Technology) and the Competition Peptide (unlabeled form) were dissolved to final concentrations of 117 nM (Peptide 2) and 50 nM (Competition Peptide). The resulting mixture was incubated for 15 minutes in the dark at room temperature.” left out
as §2

complement C3 in normal human serum, sequence (P01024 23-1663 limits assumed): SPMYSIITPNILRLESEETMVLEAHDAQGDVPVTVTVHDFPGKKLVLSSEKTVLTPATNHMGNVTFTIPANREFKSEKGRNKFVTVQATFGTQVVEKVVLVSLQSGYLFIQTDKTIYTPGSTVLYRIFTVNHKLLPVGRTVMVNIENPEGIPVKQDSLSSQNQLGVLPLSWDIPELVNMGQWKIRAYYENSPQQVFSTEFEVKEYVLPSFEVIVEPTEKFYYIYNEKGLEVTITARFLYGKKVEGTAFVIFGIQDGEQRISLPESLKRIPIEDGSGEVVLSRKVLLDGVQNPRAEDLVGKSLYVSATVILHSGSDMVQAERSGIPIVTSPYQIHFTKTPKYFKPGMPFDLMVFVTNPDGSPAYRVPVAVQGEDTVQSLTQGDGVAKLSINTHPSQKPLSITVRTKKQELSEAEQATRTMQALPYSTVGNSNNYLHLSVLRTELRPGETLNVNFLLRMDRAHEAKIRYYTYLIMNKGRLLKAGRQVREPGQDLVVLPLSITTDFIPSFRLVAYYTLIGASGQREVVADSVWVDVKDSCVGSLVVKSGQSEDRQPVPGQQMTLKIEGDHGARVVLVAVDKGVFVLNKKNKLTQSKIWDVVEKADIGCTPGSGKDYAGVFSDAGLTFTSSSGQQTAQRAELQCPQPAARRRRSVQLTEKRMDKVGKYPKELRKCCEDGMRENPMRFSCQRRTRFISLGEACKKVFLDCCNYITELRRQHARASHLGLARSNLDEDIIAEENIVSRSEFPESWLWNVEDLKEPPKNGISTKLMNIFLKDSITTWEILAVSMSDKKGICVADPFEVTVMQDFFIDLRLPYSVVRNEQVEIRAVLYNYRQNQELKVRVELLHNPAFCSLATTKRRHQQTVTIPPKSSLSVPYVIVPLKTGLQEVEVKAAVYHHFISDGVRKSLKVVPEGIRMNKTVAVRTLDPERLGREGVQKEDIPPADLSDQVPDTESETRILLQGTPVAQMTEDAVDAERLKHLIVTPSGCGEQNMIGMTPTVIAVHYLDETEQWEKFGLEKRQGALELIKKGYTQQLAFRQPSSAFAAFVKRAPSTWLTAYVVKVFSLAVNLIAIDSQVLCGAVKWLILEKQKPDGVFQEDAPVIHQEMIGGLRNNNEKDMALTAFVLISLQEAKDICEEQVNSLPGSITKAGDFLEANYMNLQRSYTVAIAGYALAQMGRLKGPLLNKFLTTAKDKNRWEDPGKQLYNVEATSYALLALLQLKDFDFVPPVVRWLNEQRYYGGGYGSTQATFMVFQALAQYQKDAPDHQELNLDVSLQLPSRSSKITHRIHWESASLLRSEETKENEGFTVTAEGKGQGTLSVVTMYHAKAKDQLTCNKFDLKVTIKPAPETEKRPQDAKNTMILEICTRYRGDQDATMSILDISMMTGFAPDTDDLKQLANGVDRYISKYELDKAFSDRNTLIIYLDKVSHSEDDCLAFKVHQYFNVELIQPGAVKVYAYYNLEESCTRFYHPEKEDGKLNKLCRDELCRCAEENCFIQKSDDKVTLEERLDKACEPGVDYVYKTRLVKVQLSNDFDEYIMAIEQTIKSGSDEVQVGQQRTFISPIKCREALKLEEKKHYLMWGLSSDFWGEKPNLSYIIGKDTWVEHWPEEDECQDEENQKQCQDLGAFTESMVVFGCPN
T1 sequence (P01024 23-667 limits assumed, chain 1 of 3): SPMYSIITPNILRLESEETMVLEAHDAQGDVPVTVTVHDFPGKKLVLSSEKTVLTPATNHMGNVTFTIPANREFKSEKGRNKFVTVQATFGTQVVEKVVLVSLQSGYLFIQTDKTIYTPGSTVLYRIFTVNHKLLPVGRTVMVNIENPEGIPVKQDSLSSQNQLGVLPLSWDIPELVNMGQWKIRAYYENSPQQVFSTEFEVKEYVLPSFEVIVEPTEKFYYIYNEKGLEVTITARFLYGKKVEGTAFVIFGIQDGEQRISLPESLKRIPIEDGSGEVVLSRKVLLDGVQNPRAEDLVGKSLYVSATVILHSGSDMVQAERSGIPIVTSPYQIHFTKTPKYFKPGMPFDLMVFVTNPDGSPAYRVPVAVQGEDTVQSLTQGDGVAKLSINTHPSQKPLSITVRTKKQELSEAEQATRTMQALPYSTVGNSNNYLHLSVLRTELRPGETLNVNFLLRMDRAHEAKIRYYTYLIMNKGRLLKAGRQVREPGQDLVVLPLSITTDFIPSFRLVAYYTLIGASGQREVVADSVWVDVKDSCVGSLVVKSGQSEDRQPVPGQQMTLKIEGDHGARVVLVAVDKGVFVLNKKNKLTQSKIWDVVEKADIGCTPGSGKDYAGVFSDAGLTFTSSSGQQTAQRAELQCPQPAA
T1 sequence (P01024 749-954 limits assumed, chain 2 of 3): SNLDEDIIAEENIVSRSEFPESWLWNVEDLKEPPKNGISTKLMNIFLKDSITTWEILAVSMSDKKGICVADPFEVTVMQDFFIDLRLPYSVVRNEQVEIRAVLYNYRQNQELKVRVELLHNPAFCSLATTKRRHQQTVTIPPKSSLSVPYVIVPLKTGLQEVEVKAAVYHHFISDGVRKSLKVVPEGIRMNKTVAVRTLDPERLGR
T1 sequence (P01024 1321-1663 limits assumed, chain 3 of 3): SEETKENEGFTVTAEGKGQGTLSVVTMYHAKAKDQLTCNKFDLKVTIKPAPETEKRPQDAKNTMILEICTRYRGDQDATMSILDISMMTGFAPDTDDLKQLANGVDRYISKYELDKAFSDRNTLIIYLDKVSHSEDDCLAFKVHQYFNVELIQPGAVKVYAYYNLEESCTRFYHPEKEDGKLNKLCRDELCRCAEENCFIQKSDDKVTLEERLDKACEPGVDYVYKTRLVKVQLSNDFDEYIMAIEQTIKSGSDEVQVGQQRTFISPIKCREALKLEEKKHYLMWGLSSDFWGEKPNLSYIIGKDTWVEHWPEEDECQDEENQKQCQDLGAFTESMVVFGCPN

Molecule: CC[C@H](C)[C@H](NC(=O)[C@H](CO)NC(=O)[C@H](CCCNC(=N)N)NC(C)=O)C(=O)N[C@H]1CSSC[C@@H](C(=O)N[C@H](C(=O)NCCOCCOCCOCCOCCOCCOCCOCCOCCC(N)=O)[C@@H](C)O)NC(=O)[C@H](CCCNC(=N)N)NC(=O)[C@H](Cc2c[nH]cn2)NC(=O)[C@H](C)NC(=O)CNC(=O)[C@H](Cc2c[nH]c3ccccc23)NC(=O)[C@H](CC(=O)O)NC(=O)[C@H](CCC(N)=O)NC(=O)[C@H](Cc2c[nH]c3ccccc23)NC(=O)[C@H](C(C)C)NC1=O [Peptide 2, Ac-RSI[CVWQDWGAHRC]T-PEG8-NH2]
- reduction in NHS-induced basal C5b-9n deposition [1]: 80%
- inhibitory effect relative to parent Peptide 1 ([1]; formation of C5b-9-rich sub-RPE deposits): two-fold greater inhibitory effect
- IC50 [2]: 960 nM
- apparent solubility (comparison) [3]: significantly higher apparent solubility than the parent Peptide 1 and the Competition Peptide
- slope of correlation between calculated and observed concentrations ([3]; absorbance at 280 nm): 0.92

Molecule: CC[C@H](C)[C@H](N)C(=O)N[C@H]1CSSC[C@@H](C(=O)N[C@H](C(N)=O)[C@@H](C)O)NC(=O)[C@H](CCCN=C(N)N)NC(=O)[C@H](Cc2cnc[nH]2)NC(=O)[C@H](Cc2cnc[nH]2)NC(=O)CNC(=O)[C@H](Cc2c[nH]c3ccccc23)NC(=O)[C@H](CC(=O)O)NC(=O)[C@H](CCC(N)=O)NC(=O)[C@H](C(C)C)NC(=O)[C@H](C(C)C)NC1=O [compstatin, ICVVQDWGHHRCT]
- IC50 [4]: ~12900 nM

Molecule: Ac-RSI[CVWQDWGAHRC]T-NH2 (Ac-RSICVWQDWGAHRCT-NH2; disulfide 4-14) [Peptide 1, reference compound]
- reduction in NHS-induced basal C5b-9n deposition [1]: 50%

B1: Peptide 1, Ac-RSI[CVWQDWGAHRC]T-NH2 (peptide)
peptide: Ac-RSICVWQDWGAHRCT-NH2
modifications: disulfide 4-14
- Mean IC50, hemolytic assay (rabbit erythrocytes, normal human serum, alternative pathway) [5]: 970 nM

B2: Competition Peptide, unlabeled, Ac-I[CVWQDWGAHRC]TAGK-NH2 (peptide)
peptide: Ac-ICVWQDWGAHRCTAGK-NH2
modifications: disulfide 2-12
SMILES: CC[C@H](C)[C@H](NC(C)=O)C(=O)N[C@H]1CSSC[C@@H](C(=O)N[C@H](C(=O)N[C@@H](C)C(=O)NCC(=O)N[C@@H](CCCCN)C(N)=O)[C@@H](C)O)NC(=O)[C@H](CCCNC(=N)N)NC(=O)[C@H](Cc2c[nH]cn2)NC(=O)[C@H](C)NC(=O)CNC(=O)[C@H](Cc2c[nH]c3ccccc23)NC(=O)[C@H](CC(=O)O)NC(=O)[C@H](CCC(N)=O)NC(=O)[C@H](Cc2c[nH]c3ccccc23)NC(=O)[C@H](C(C)C)NC1=O
- Mean IC50, hemolytic assay (rabbit erythrocytes, normal human serum, alternative pathway) [5]: 1400 nM

B3: Peptide 2, Ac-RSI[CVWQDWGAHRC]T-PEG8-NH2 (peptide)
peptide: Ac-RSICVWQDWGAHRCT-{PEG8′-NH2}
modifications: disulfide 4-14
notes: Synthetic compstatin analog with an Arg-Ser N-terminal extension and a C-terminal PEG8; molecular mass 2279; also called PEGylated Peptide 2; PEGylated compstatin peptide
- Mean IC50, hemolytic assay (rabbit erythrocytes, normal human serum, alternative pathway) [5]: 960 nM
- Kd [6]: 690 nM
- IC50 (read off the curve) [7]: ~700 nM
